Values quoted from earlier work in paper PMC7395068, “The evolution of strategies to minimise the risk of human drug-induced liver injury (DILI) in drug discovery and development” (Archives of Toxicology, 2020).
Like-named read-outs stand apart in the source and are kept apart here.

Tests used:
[1] = ref Chen 2016; cited from earlier work
HepG2 cells [2] = settings: In vitro Assay; ref O'Brien 2006; cited from earlier work
HepG2 cells [3] = settings: In vitro Assay; ref Persson 2013; cited from earlier work
human hepatocytes = settings: In vitro Assay; ref Xu 2008; cited from earlier work
PHH = settings: In vitro Assay; ref Proctor 2017; cited from earlier work
hLiMTs = settings: In vitro Assay; ref Proctor 2017; cited from earlier work
PHH spheroids = settings: In vitro Assay; ref Vorrink 2018; cited from earlier work
[4] = system: HepG2 C3A spheroid, BSEP, Glu/Gal in HepG2 cells, bioactivation; settings: In vitro Assay; ref Williams 2019; cited from earlier work
[5] = cited from earlier work
[6] = system: THLE-Null and THLE-3A4 cells; settings: In vitro Assay; ref Gustafsson 2014; cited from earlier work
[7] = system: HepG2 cells, primary human hepatocytes; settings: In vitro Assay; ref Garside 2014; cited from earlier work
[8] = ref Chen 2011; cited from earlier work
rBsep = settings: In vitro Assay; ref Dawson 2012; cited from earlier work
HepG2 cells [9] = settings: cited from earlier work; for Structural based (HCI), In vitro Assay: HepG2 HCI
[10] = system: THLE or HepG2 cells, isolated mitochondria, BSEP; settings: In vitro Assay; ref Aleo 2019; cited from earlier work
[11] = assignment in Tolosa 2012, ref Tolosa 2012

CC(c1cc2ccccc2s1)N(O)C(N)=O (centres unmarked) [zileuton]
vMost-DILI-Concern: DILI severity category [1]
-VE: Cluser analysis (HepG2 cells [3]) | PHH ATP <100uM (PHH) | hLiMTs ATP <100uM (hLiMTs) | hLiMTs ATP <20 x Cmax (PHH spheroids) | THLE-Null [6] | THLE-Null/3A4 [6] | Cluster 1-6 +VE Assay [7] | Inhibition of rBsep cutoff<1& cmax u>.2 (rBsep) | Inhibition of rBsep cutoff<3 (rBsep)
5: DILI Score (FDA) (1-8) [8]
+VE: DILI +VE (5-8), DILI -VE (-4) [1] | Structural based (HCI) (HepG2 cells [2]) | Structural based (HCI) (HepG2 cells [3]) | Structural based (HCI) (human hepatocytes) | Bayesian Machine Learning [4] | In vivo DILI ([5]; […]) | In vivo DILI ([5]; ref Dawson 2012) | In vivo DILI ([5]; ref Garside 2014) | In vivo DILI ([5]; ref Gustafsson 2014) | In vivo DILI ([5]; ref O'Brien 2006) | In vivo DILI ([5]; ref Persson 2013) | In vivo DILI ([5]; ref Proctor 2017) | In vivo DILI ([5]; ref Vorrink 2018) | In vivo DILI ([5]; ref Williams 2019) | In vivo DILI ([5]; ref Xu 2008)

CCOC(=O)CC(SP(=S)(OC)OC)C(=O)OCC (centres unmarked) [malathion]
+VE: Structural based (HCI), In vitro Assay (HepG2 cells [9]; ref Tolosa 2012) | In vivo DILI [5, 11]

C[C@@H]1C[C@@H]([C@H](O)CC2CC(=O)NC(=O)C2)C(=O)[C@@H](C)C1 [cycloheximide]
+VE: Structural based (HCI) (HepG2 cells [9]) | In vivo DILI ([5]; in vivo)

Fc1ccc([C@@H]2CCNC[C@H]2COc2ccc3c(c2)OCO3)cc1 [paroxetine]
+VE: DILI +VE (5-8), DILI -VE (-4) [1] | Partition Hybrid HRM Score [10] | Bayesian Machine Learning [4] | In vivo DILI ([5]; ref Aleo 2019) | In vivo DILI ([5]; ref O'Brien 2006) | In vivo DILI ([5]; ref Proctor 2017) | In vivo DILI ([5]; ref Williams 2019)
vLess-DILI-Concern: DILI severity category [1]
8: DILI Score (FDA) (1-8) [8]
-VE: Structural based (HCI) (HepG2 cells [2]) | Structural based (HCI) (human hepatocytes) | Ro2 Hybrid HRM Score [10] | hLiMTs ATP <20 x Cmax (PHH spheroids) | In vivo DILI ([5]; […]) | In vivo DILI ([5]; ref Vorrink 2018) | In vivo DILI ([5]; ref Xu 2008)
+VE (IC50 threshold of 100 µM): PHH ATP <100uM (PHH) | hLiMTs ATP <100uM (hLiMTs)

C[n+]1ccc(-c2cc[n+](C)cc2)cc1 [paraquat]
+VE: Structural based (HCI), In vitro Assay (HepG2 cells [9]; ref Tolosa 2012) | In vivo DILI [5, 11]

N[C@H]1C(O)O[C@H](CO)[C@H](O)[C@@H]1O (some centres unmarked) [galactosamine]
-VE: Structural based (HCI) (HepG2 cells [9]; In vitro Assay, ref Tolosa 2012)
+VE: In vivo DILI ([5]; ref O'Brien 2006) | In vivo DILI ([5]; ref Tolosa 2012)

CNCCCN1c2ccccc2CCc2ccccc21 [desipramine]
+VE: Ro2 Hybrid HRM Score [10] | Bayesian Machine Learning [4] | In vivo DILI ([5]; ref Proctor 2017) | In vivo DILI ([5]; ref Williams 2019)
+VE (IC50 threshold of 100 µM): PHH ATP <100uM (PHH) | hLiMTs ATP <100uM (hLiMTs)
3: DILI Score (FDA) (1-8) [8]
-VE: DILI +VE (5-8), DILI -VE (-4) [1] | In vivo DILI ([5]; ref Schadt 2015) | In vivo DILI ([5]; ref Xu 2008)
Ambiguous DILI-concern: DILI severity category [1]

NC(=O)OCC(COC(N)=O)c1ccccc1 [felbamate]
-VE: Cluser analysis (HepG2 cells [3]) | Structural based (HCI) (HepG2 cells [3]) | Structural based (HCI) (human hepatocytes) | PHH ATP <100uM (PHH) | hLiMTs ATP <100uM (hLiMTs) | THLE-Null [6] | THLE-Null/3A4 [6] | Cluster 1-6 +VE Assay [7] | Inhibition of rBsep cutoff<1& cmax u>.2 (rBsep) | Inhibition of rBsep cutoff<3 (rBsep)
7: DILI Score (FDA) (1-8) [8]
vMost-DILI-Concern: DILI severity category [1]
+VE: DILI +VE (5-8), DILI -VE (-4) [1] | Structural based (HCI) (HepG2 cells [2]) | Bayesian Machine Learning [4] | In vivo DILI ([5]; […]) | In vivo DILI ([5]; ref Dawson 2012) | In vivo DILI ([5]; ref Garside 2014) | In vivo DILI ([5]; ref Gustafsson 2014) | In vivo DILI ([5]; ref O'Brien 2006) | In vivo DILI ([5]; ref Persson 2013) | In vivo DILI ([5]; ref Proctor 2017) | In vivo DILI ([5]; ref Williams 2019) | In vivo DILI ([5]; ref Xu 2008)

CCCCOCCOCCOCc1cc2c(cc1CCC)OCO2 [piperonyl butoxide]
+VE: Structural based (HCI), In vitro Assay (HepG2 cells [9]; ref Tolosa 2012) | In vivo DILI [5, 11]

Oc1c(Cl)c(Cl)c(Cl)c(Cl)c1Cl [pentachlorophenol]
+VE: Structural based (HCI) (HepG2 cells [9]) | In vivo DILI ([5]; in vivo)

CN(C)/N=N/c1[nH]cnc1C(N)=O [dacarbazine]
6: DILI Score (FDA) (1-8) [8]
-VE: Partition Hybrid HRM Score [10] | THLE-Null [6] | THLE-Null/3A4 [6] | Cluster 1-6 +VE Assay [7]
vMost-DILI-Concern: DILI severity category [1]
+VE (IC20 < 20 × Cmax.tot cut-off): hLiMTs ATP <20 x Cmax (PHH spheroids)
+VE: DILI +VE (5-8), DILI -VE (-4) [1] | Ro2 Hybrid HRM Score [10] | In vivo DILI ([5]; […]) | In vivo DILI ([5]; ref Aleo 2019) | In vivo DILI ([5]; ref Garside 2014) | In vivo DILI ([5]; ref Gustafsson 2014) | In vivo DILI ([5]; ref Vorrink 2018)

C#C[C@]1(O)CC[C@H]2[C@@H]3CCc4cc(O)ccc4[C@H]3CC[C@@]21C [17-a ethynylestradiol]
+VE: Structural based (HCI) (HepG2 cells [9])
